Results published in patent US12121525B2, “Methods for treating GI syndrome and graft versus host disease” (Sloan Kettering Institute for Cancer Research, priority 2007, dated 2024).

Experiments:
[1] = system: splenic T cells; assay: Activation-induced cell death (AICD) assay, T cell apoptosis; assay type: cell-based, mouse; details: 500 nM; 16 hr
Source text: To define a role for target cell ASMase in AICD, asmase^+/+, asmase^−/− or MRL.1pr (FasR^−/−) T cells were stimulated for 24 hr with 10 microgam/ml ConA, washed, rested in medium containing 20 U/ml rIL-2 for 24 hr, and finally AICD was initiated by restimulation in medium containing 20 U/ml rIL-2 and increasing concentrations of plate bound anti-CD3 mAb for 24 hr. AICD induction by anti-CD3 mAb conferred ceramide-rich platform generation 4 hr following stimulation (FIG. 19D), evident in 26.4±1.6% of the population of asmase^+/+ T cells compared to 5.1±1.0% of asmase^−/− T cells (p<0.005). Confocal analysis identified colocalization of the sphingolipid GM1 (FIG. 19E) and Fas within ceramide-rich platforms in asmase^+/+ T cells.
To characterize the impact of platform generation on AICD, asmase^+/+ and asmase^−/− T cells were induced to undergo AICD and apoptosis was quantified 16 hr thereafter. Apoptosis in asmase^+/+ T cells was anti-CD3 mAb dose-dependent, reaching 32.9±5.2% apoptosis 16 hr post induction (FIG. 19F). […]
Harvested splenocytes were enriched for T lymphocytes by nylon wool passage, resulting in >90% purity based upon FITC-CD3 mAb staining by flow cytometry. […] Cells were subsequently fixed, stained with 25 μl of 24 μg/ml bis-benzimide trihydrochloride solution (Hoechst #33258; Sigma-Aldrich, Milwaukee Wisc.) and apoptosis was quantified by fluorescence microscopy, as above.

[2] = system: splenic T cells; assay: Platform generation in T cells after AICD induction; details: 500 nM; not shown
[3] = system: C57BL/6 splenocytes; assay: MLR-primed CTL-induced splenocyte lysis (51Cr release); assay type: cell-based, mouse; details: 500 nM
Description: To show the generic role of target cell ASMase in T cell-induced lysis, we used two standardized assays for T cell function; MLR-primed CTL-induced splenocyte lysis (FIG. 17) and in vitro activation-induced cell death (AICD) of T cells (FIG. 18). The role of target cell ASMase was assessed in an in vitro activated MLR, in which C57BL/6 splenocyte target cells of asmase^+/+ or asmase^−/− genotype were stimulated for 48 hrs with mitogen, washed and chromium labeled. These cells were then coincubated with effector Balb/c splenocytes activated for 5 days by culture with irradiated C57BL/6 splenocytes. Chromium release was quantified and the % lysis was calculated. […] Washed splenocytes cells were coincubated with increasing ratios of activated effector Balb/c T cells, and ^51Cr release was quantified 6 hour thereafter. […]
To evaluate a potential generic role for target cell ASMase in platform generation in T cell-induced lysis, we tested two standardized assays for T cell-mediated cytolysis, MLR-primed CTL-induced splenocyte lysis, and in vitro AICD of T cells. […] Furthermore, MLR-primed CTLs induced 43.2±6.5% asmase^+/+ splenocyte lysis at an effector:target ratio of 50:1 (FIG. 19B), attenuated to 7.3±2.5% lysis in asmase^−/− target cells, as quantified by ^51Cr-release assay. […]

[4] = system: C57BL/6 splenocytes; assay: Platform generation on target splenocytes coincubated with MLR-primed CTLs; details: 500 nM
[5] = system: C57BL/6 hepatocytes; assay type: cell-based; details: not shown
Description: Whereas Fas-mediated apoptotic death receptor activation requires generation of ceramide-rich platforms in some cell systems, CTL-induced platform generation was assessed in asmase^+/+ and asmase^−/− hepatocytes in the ex vivo model of GvHD. Alloactivated T cells induced rapid generation of ceramide-rich platforms on the surface of the target hepatocytes 10 min following co-incubation (FIG. 16C). Platform generation increased within one minute, peaked at 10 min, and persisted for over 60 min (FIG. 16D). Fas, required for apoptosis in this system, concentrated within the ceramide-rich platform as determined by confocal microscopy.
Platforms were detected as previously described. […]; Sigma-Aldrich) for 45 min at 4° C., washed twice in PBS containing 0.1% Triton X-100 and mounted in fluorescent mounting medium (Dako, Carpenteria CA). Fluorescence was detected using an Axiovert S-100 Zeiss fluorescence microscope equipped with a SPOT digital camera. The percentage of cells containing platforms, i.e. those in which the fluorescence condenses onto less than 15% of the cell surface, was determined by counting 150-250 cells per point. Alternately, platforms were identified using a mouse monoclonal anti-ceramide antibody MID 15B4 IgM (1:50 dilution, Alexis Biochemicals), mouse monoclonal anti-Fas CH-11 IgM (1:500 dilution, Upstate Biotechnology) or polyclonal rabbit anti-ASMase antibody 1598 (1:100 dilution) and detected using Cy3-conjugated anti-mouse or anti-rabbit IgM (1:500 dilution, Roche Molecular Biochemicals), respectively. Rabbit polyclonal anti-CD46 (1:1000 dilution, Santa Cruz Biotechnology, Santa Cruz CA) was used as a negative control. In some studies, confocal images were obtained using a Leica TCS SPZ upright confocal microscope. Alternatively, 0.5×10^6hepatocytes were stimulated for the indicated times with CTLs and platform formation was assessed as described.

[6] = system: C57BL/6 hepatocytes; assay type: cell-based
Description: FIGS. 16A-16F. In vivo activated allogeneic CTLs require target hepatocyte ASMase for efficient killing ex vivo. Hepatocytes, isolated as described in Example 1, were coincubated with splenic T cells harvested from lethally-irradiated wild type C57BL/6 recipients 10-14 days following transplantation of LP BM+T cells. FIG. 16A: 2×10^6 GvH-activated CTLs were coincubated with 0.5×10^6 wild type C57BL/6 or B6.MRL.1pr (FasR^−/−) hepatocytes (left panel) in complete medium for 16 hr. […] Apoptosis was quantified following fixation by nuclear bisbenzimide staining. FIG. 16B: asmase^−/− hepatocytes are resistant to apoptosis induced by GvH-activated CTLs. CTL coincubation was performed as in FIG. 16A and apoptosis was quantified 16 hr thereafter. FIG. 16C: Representative images of asmase^+/+ (top left panel) and asmase^−/− (bottom left panel) C57BL/6 hepatocytes following 10 min coincubation in suspension with 2×10^6 GvH-activated T cells. Hepatocytes were fixed and stained with DAPI and Cy-3-labelled anti-ceramide mAb as described in Example 1. Arrows indicate ceramide-rich platform generation on the outer leaflet of the plasma membrane. […] FIG. 16D: Quantification of ceramide-rich platforms in asmase^+/+ and asmase^−/− hepatocytes following incubation with 2×10^6 GvH-activated CTLs. […] Apoptosis was quantified as in FIG. 16A. […] 0.5×10^6 wild type hepatocytes, preincubated with 50 μg/mL nystatin for 30 min and resuspended in RPMI containing 1% lipid-free FBS, were coincubated with 2×10^6 GvH-activated T cells and apoptosis was quantified as in FIG. 16A. […]
To assess whether ceramide-mediated raft clustering into membrane platforms is an essential component of cytolytic T cell (CTL)-induced apoptosis of hepatocytes, we blocked raft clustering pharmacologically and examined the impact on alloactivated CTL-induced hepatocyte apoptosis in vitro. […] Co-incubation induced increased hepatocyte apoptosis from a baseline of 4.7±0.7% to 33.8±1.9% by 16 hr, as detected by nuclear morphologic changes (FIG. 16A). […]

[7] = system: C57BL/6 mice; details: intravenous, prior to TBI; cited from earlier work

CCCCCCCCCCCCCCCC(=O)N[C@@H](CO)[C@H](O)CCCCCCCCCCCCCCC [C16-dihydroceramide]
apoptosis of asmase−/− T cells stimulated to undergo AICD [1]: not | platform generation in asmase−/− T cells stimulated to undergo AICD [2]: not | CTL-induced lysis of asmase−/− target splenocytes [3]: ineffective | platform generation on asmase−/− target splenocytes [4]: ineffective | CTL-induced platform generation in asmase−/− hepatocytes [5]: failed to restore

C/C=C/[C@H]1O[C@@](O)([C@@H](C)[C@H](O)[C@H](C)[C@H]2OC(=O)/C(OC)=C/C(C)=C/[C@@H](C)[C@@H](O)[C@@H](CC)[C@@H](O)[C@H](C)C/C(C)=C/C=C/[C@@H]2OC)C[C@@H](O[C@H]2C[C@@H](O)[C@H](OC(N)=O)[C@@H](C)O2)[C@@H]1C [CMA, concanamycin A]
CTL-induced hepatocyte apoptosis ([6]; CTLs incubated 2 hr with 100 ng/ml CMA, wild type hepatocytes, 16 hr): no effect

C[C@@H]1[C@H](O)[C@@H](C)/C=C/C=C/CC/C=C/C=C/C=C/C=C/C(O[C@H]2O[C@H](C)[C@@H](O)[C@H](N)[C@@H]2O)CC2O[C@](O)(CC(O)C(O)CCC(O)CC(O)CC(O)CC(=O)O[C@H]1C)CC(O)C2C(=O)O (some centres unmarked) [nystatin]
2×10^6 alloactivated CTL-induced hepatocyte apoptosis ([6]; wild type hepatocytes preincubated with 50 μg/mL nystatin for 30 min): completely inhibited | CTL-induced ceramide-rich platform generation ([5]; wild type hepatocytes, nystatin 50 μg/mL 30 min): abrogated

bFGF: endothelial cell survival factor
crypt stem cell clonogens [7]: preserved | lethality from the GI syndrome [7]: protected | radiation-induced endothelial apoptosis of the intestinal microvascular system [7]: attenuated
